# Assay results as given in ChEMBL document CHEMBL1201862, “PubChem BioAssay data set” (2004).
#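 Assay format: 96-well plates, 48-hour exposure. Abbreviation: GI50, concentration required for 50% inhibition of growth.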 Calls of active or inactive are those of the source. Rule as the data show it: active = GI50 up to about 1.1 µM and inactive = higher.
# What was measured:
# Assay in all cases: NCI anticancer screen, dose series, 48 h
# 786-0 = tested on: 786-0
# A498 = tested on: A498
# A549 = tested on: A549
# ACHN = tested on: ACHN
# CAKI-1 = tested on: CAKI-1
# CCRF-CEM = tested on: CCRF-CEM
# COLO 205 = tested on: COLO 205
# DLD-1 = tested on: DLD-1
# DMS-114 = tested on: DMS-114
# DMS-273 = tested on: DMS-273
# EKVX = tested on: EKVX
# HCC 2998 = tested on: HCC 2998
# HCT-116 = tested on: HCT-116
# HCT-15 = tested on: HCT-15
# HL-60 = tested on: HL-60
# HOP-62 = tested on: HOP-62
# HOP-92 = tested on: HOP-92
# HT-29 = tested on: HT-29
# IGROV-1 = tested on: IGROV-1
# K562 = tested on: K562
# KM-20L2 = tested on: KM-20L2
# KM12 = tested on: KM12
# LOX IMVI = tested on: LOX IMVI
# LXFL 529 = tested on: LXFL 529
# M14 = tested on: M14
# MOLT-4 = tested on: MOLT-4
# Malme-3M = tested on: Malme-3M
# NCI-H226 = tested on: NCI-H226
# NCI-H23 = tested on: NCI-H23
# NCI-H460 = tested on: NCI-H460
# NCI-H522 = tested on: NCI-H522
# OVCAR-3 = tested on: OVCAR-3
# OVCAR-4 = tested on: OVCAR-4
# OVCAR-5 = tested on: OVCAR-5
# OVCAR-8 = tested on: OVCAR-8
# RPMI-8226 = tested on: RPMI-8226
# RXF 393 = tested on: RXF 393
# RXF 631 = tested on: RXF 631
# SF-268 = tested on: SF-268
# SF-295 = tested on: SF-295
# SF-539 = tested on: SF-539
# SK-MEL-28 = tested on: SK-MEL-28
# SK-MEL-5 = tested on: SK-MEL-5
# SK-OV-3 = tested on: SK-OV-3
# SN12C = tested on: SN12C
# SNB-19 = tested on: SNB-19
# SNB-75 = tested on: SNB-75
# SNB-78 = tested on: SNB-78
# SR = tested on: SR
# SW-620 = tested on: SW-620
# TK-10 = tested on: TK-10
# U-251 = tested on: U-251
# UACC-257 = tested on: UACC-257
# UACC-62 = tested on: UACC-62
# UO-31 = tested on: UO-31
# XF498 = tested on: XF498
# BT-549 = tested on: BT-549
# DU-145 = tested on: DU-145
# HOP-18 = tested on: HOP-18
# Hs-578T = tested on: Hs-578T
# M19-MEL = tested on: M19-MEL
# MCF7 = tested on: MCF7
# MDA-MB-231 = tested on: MDA-MB-231
# MDA-MB-435 = tested on: MDA-MB-435
# MDA-N = tested on: MDA-N
# PC-3 = tested on: PC-3
# SK-MEL-2 = tested on: SK-MEL-2
# T47D = tested on: T47D
smiles,measurement,setting,value
CCCCCCCCCCCCCCCC(=O)NC1CCc2cc(O)c(O)c(O)c2-c2ccc(SC)c(=O)cc21 (centres undefined),GI50,786-0,16.6 µM (inactive)
same,GI50,A498,19.3 µM (inactive)
same,GI50,A549,1.49 µM (inactive)
same,GI50,ACHN,8.04 µM (inactive)
same,GI50,CAKI-1,13 µM (inactive)
same,GI50,CCRF-CEM,3.93 µM (inactive)
same,GI50,COLO 205,5.21 µM (inactive)
same,GI50,DLD-1,7.94 µM (inactive)
same,GI50,DMS-114,1.94 µM (inactive)
same,GI50,DMS-273,4.16 µM (inactive)
same,GI50,EKVX,19 µM (inactive)
same,GI50,HCC 2998,4.01 µM (inactive)
same,GI50,HCT-116,3.86 µM (inactive)
same,GI50,HCT-15,6.03 µM
same,GI50,HL-60,3.35 µM (inactive)
same,GI50,HOP-62,9.59 µM (inactive)
same,GI50,HOP-92,2.51 µM (inactive)
same,GI50,HT-29,13.1 µM (inactive)
same,GI50,IGROV-1,8.39 µM (inactive)
same,GI50,K562,1.89 µM (inactive)
same,GI50,KM-20L2,15.7 µM (inactive)
same,GI50,KM12,6.22 µM (inactive)
same,GI50,LOX IMVI,12 µM (inactive)
same,GI50,LXFL 529,1.44 µM (inactive)
same,GI50,M14,8.02 µM (inactive)
same,GI50,MOLT-4,9.44 µM (inactive)
same,GI50,Malme-3M,10.4 µM (inactive)
same,GI50,NCI-H226,10.6 µM (inactive)
same,GI50,NCI-H23,1.37 µM (inactive)
same,GI50,NCI-H460,5.77 µM (inactive)
same,GI50,NCI-H522,2.37 µM (inactive)
same,GI50,OVCAR-3,5.28 µM (inactive)
same,GI50,OVCAR-4,10.3 µM (inactive)
same,GI50,OVCAR-5,12.9 µM (inactive)
same,GI50,OVCAR-8,7.67 µM (inactive)
same,GI50,RPMI-8226,1.61 µM (inactive)
same,GI50,RXF 393,1.46 µM (inactive)
same,GI50,RXF 631,13.2 µM (inactive)
same,GI50,SF-268,5.28 µM (inactive)
same,GI50,SF-295,3.7 µM (inactive)
same,GI50,SF-539,2.07 µM (inactive)
same,GI50,SK-MEL-28,6.67 µM (inactive)
same,GI50,SK-MEL-5,4.42 µM (inactive)
same,GI50,SK-OV-3,14.4 µM (inactive)
same,GI50,SN12C,12.9 µM (inactive)
same,GI50,SNB-19,9.29 µM (inactive)
same,GI50,SNB-75,2.62 µM (inactive)
same,GI50,SNB-78,8.55 µM (inactive)
same,GI50,SR,2.79 µM (inactive)
same,GI50,SW-620,4.84 µM (inactive)
same,GI50,TK-10,15.8 µM (inactive)
same,GI50,U-251,1.29 µM (inactive)
same,GI50,UACC-257,11.1 µM (inactive)
same,GI50,UACC-62,2.9 µM (inactive)
same,GI50,UO-31,8.22 µM (inactive)
same,GI50,XF498,7.26 µM (inactive)
CCCCCCCCCCCCCC(=O)CBr,GI50,786-0,5.13 µM (inactive)
same,GI50,A498,17.4 µM (inactive)
same,GI50,A549,22.5 µM (inactive)
same,GI50,ACHN,15 µM (inactive)
same,GI50,BT-549,8.71 µM (inactive)
same,GI50,CAKI-1,1.1 µM (active)
same,GI50,CCRF-CEM,0.467 µM (active)
same,GI50,COLO 205,14.9 µM (inactive)
same,GI50,DLD-1,11.7 µM (inactive)
same,GI50,DMS-114,3.9 µM (inactive)
same,GI50,DMS-273,> 10 µM (inactive)
same,GI50,DU-145,18.6 µM (inactive)
same,GI50,EKVX,18.7 µM (inactive)
same,GI50,HCC 2998,15.8 µM (inactive)
same,GI50,HCT-116,12.3 µM (inactive)
same,GI50,HCT-15,11.1 µM
same,GI50,HL-60,1.03 µM (active)
same,GI50,HOP-18,14.7 µM (inactive)
same,GI50,HOP-62,21.5 µM (inactive)
same,GI50,HOP-92,2.36 µM (inactive)
same,GI50,HT-29,15.9 µM (inactive)
same,GI50,Hs-578T,5.64 µM (inactive)
same,GI50,IGROV-1,5.79 µM (inactive)
same,GI50,K562,3.53 µM (inactive)
same,GI50,KM-20L2,15.6 µM (inactive)
same,GI50,KM12,12.1 µM (inactive)
same,GI50,LOX IMVI,3.83 µM (inactive)
same,GI50,LXFL 529,3.72 µM (inactive)
same,GI50,M14,10.8 µM (inactive)
same,GI50,M19-MEL,9.25 µM (inactive)
same,GI50,MCF7,13.4 µM (inactive)
same,GI50,MDA-MB-231,16.3 µM (inactive)
same,GI50,MDA-MB-435,16.7 µM (inactive)
same,GI50,MDA-N,12.3 µM (inactive)
same,GI50,MOLT-4,0.764 µM (active)
same,GI50,Malme-3M,9.06 µM (inactive)
same,GI50,NCI-H226,17.4 µM (inactive)
same,GI50,NCI-H23,9.77 µM (inactive)
same,GI50,NCI-H460,18 µM (inactive)
same,GI50,NCI-H522,1.84 µM (inactive)
same,GI50,OVCAR-3,18.3 µM (inactive)
same,GI50,OVCAR-4,14.2 µM (inactive)
same,GI50,OVCAR-5,22.1 µM (inactive)
same,GI50,OVCAR-8,14 µM (inactive)
same,GI50,PC-3,3.62 µM (inactive)
same,GI50,RPMI-8226,1.47 µM (inactive)
same,GI50,RXF 393,3.3 µM (inactive)
same,GI50,RXF 631,16.3 µM (inactive)
same,GI50,SF-268,12.2 µM (inactive)
same,GI50,SF-295,15.4 µM (inactive)
same,GI50,SF-539,13.2 µM (inactive)
same,GI50,SK-MEL-28,16.5 µM (inactive)
same,GI50,SK-MEL-2,11.5 µM (inactive)
same,GI50,SK-MEL-5,12.1 µM (inactive)
same,GI50,SK-OV-3,24 µM (inactive)
same,GI50,SN12C,16.6 µM (inactive)
same,GI50,SNB-19,16.9 µM (inactive)
same,GI50,SNB-75,6.03 µM (inactive)
same,GI50,SNB-78,14.2 µM (inactive)
same,GI50,SR,1.04 µM (active)
same,GI50,SW-620,12 µM (inactive)
same,GI50,T47D,3.94 µM (inactive)
same,GI50,TK-10,15.8 µM (inactive)
same,GI50,U-251,14.6 µM (inactive)
same,GI50,UACC-257,13.2 µM (inactive)
same,GI50,UACC-62,9.79 µM (inactive)
same,GI50,UO-31,8.93 µM (inactive)
CCc1cccc(C(C)C)c1NC(=O)C(=O)CC(=O)c1c(C)[n+]([O-])c2ccccc2[n+]1[O-],GI50,786-0,> 100 µM (inactive)
same,GI50,A498,> 100 µM (inactive)
same,GI50,A549,> 100 µM (inactive)
same,GI50,ACHN,77.6 µM (inactive)
same,GI50,CAKI-1,> 100 µM (inactive)
same,GI50,CCRF-CEM,> 100 µM (inactive)
same,GI50,COLO 205,> 100 µM (inactive)
same,GI50,DLD-1,> 100 µM (inactive)
same,GI50,DMS-114,> 100 µM (inactive)
same,GI50,EKVX,> 100 µM (inactive)
same,GI50,HCC 2998,> 100 µM (inactive)
same,GI50,HCT-116,> 100 µM (inactive)
same,GI50,HCT-15,> 100 µM
same,GI50,HL-60,> 100 µM (inactive)
same,GI50,HOP-62,> 100 µM (inactive)
same,GI50,HOP-92,> 100 µM (inactive)
same,GI50,IGROV-1,> 100 µM (inactive)
same,GI50,K562,> 100 µM (inactive)
same,GI50,KM-20L2,> 100 µM (inactive)
same,GI50,LOX IMVI,> 100 µM (inactive)
same,GI50,LXFL 529,> 100 µM (inactive)
same,GI50,M14,> 100 µM (inactive)
same,GI50,M19-MEL,> 100 µM (inactive)
same,GI50,MOLT-4,56.1 µM (inactive)
same,GI50,Malme-3M,> 100 µM (inactive)
same,GI50,NCI-H226,> 100 µM (inactive)
same,GI50,NCI-H23,> 100 µM (inactive)
same,GI50,NCI-H460,> 100 µM (inactive)
same,GI50,NCI-H522,> 100 µM (inactive)
same,GI50,OVCAR-4,> 100 µM (inactive)
same,GI50,OVCAR-5,> 100 µM (inactive)
same,GI50,OVCAR-8,> 100 µM (inactive)
same,GI50,RPMI-8226,30.1 µM (inactive)
same,GI50,RXF 393,> 100 µM (inactive)
same,GI50,RXF 631,> 100 µM (inactive)
same,GI50,SF-268,> 100 µM (inactive)
same,GI50,SF-539,> 100 µM (inactive)
same,GI50,SK-MEL-28,> 100 µM (inactive)
same,GI50,SK-MEL-2,> 100 µM (inactive)
same,GI50,SK-MEL-5,> 100 µM (inactive)
same,GI50,SK-OV-3,> 100 µM (inactive)
same,GI50,SN12C,> 100 µM (inactive)
same,GI50,SNB-19,> 100 µM (inactive)
same,GI50,SNB-75,> 100 µM (inactive)
same,GI50,SNB-78,> 100 µM (inactive)
same,GI50,SW-620,> 100 µM (inactive)
same,GI50,TK-10,> 100 µM (inactive)
same,GI50,U-251,> 100 µM (inactive)
same,GI50,UACC-62,> 100 µM (inactive)
same,GI50,UO-31,> 100 µM (inactive)
same,GI50,XF498,> 100 µM (inactive)
